Here are results for 15 compounds from ChEMBL document CHEMBL1138276, “Discovery of small-molecule inhibitors of tyrosinase” (Bioorg Med Chem Lett, 2007).

Assay [1] in a line: (§1) Decrease of pigmentation in human MNT1 cells at 15 uM after 4 days. In kind it is functional. Conditions: MNT-1, 96 h.
The target of assay [2] is T1, Tyrosinase (Agaricus bisporus) (UniProt O42713).
T1 sequence (whole entry): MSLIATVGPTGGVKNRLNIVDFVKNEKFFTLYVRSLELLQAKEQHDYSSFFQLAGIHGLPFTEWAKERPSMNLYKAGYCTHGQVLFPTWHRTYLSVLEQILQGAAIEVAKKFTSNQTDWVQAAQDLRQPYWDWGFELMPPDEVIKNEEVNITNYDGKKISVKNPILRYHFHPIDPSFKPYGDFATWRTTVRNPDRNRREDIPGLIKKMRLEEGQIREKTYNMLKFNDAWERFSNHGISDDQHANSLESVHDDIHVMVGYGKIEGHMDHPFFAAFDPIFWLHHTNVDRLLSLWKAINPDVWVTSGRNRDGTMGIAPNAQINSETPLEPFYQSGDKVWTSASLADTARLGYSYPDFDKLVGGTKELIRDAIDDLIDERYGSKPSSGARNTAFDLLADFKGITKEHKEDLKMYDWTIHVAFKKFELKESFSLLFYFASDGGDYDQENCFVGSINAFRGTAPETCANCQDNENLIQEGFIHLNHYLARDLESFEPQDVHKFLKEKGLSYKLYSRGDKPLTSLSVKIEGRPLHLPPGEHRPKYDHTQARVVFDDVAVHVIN
As to the kind of experiment: Inhibition of mushroom tyrosinase at 15 uM.

For assay [3], the target named is T1, Tyrosinase (Agaricus bisporus). Nature of the assay: Inhibition of mushroom tyrosinase at 1.7 uM.
The target of assay [4] is T2, Tyrosinase (Agaricus bisporus, UniProt O42713).
T2 sequence (O42713 whole entry): T1 sequence (whole entry)
Nature of the assay: Inhibition of mushroom tyrosinase.

The subject of assay [5] is MNT1. The description is as §1. In kind it is functional.

As a reminder, the inhibition is the relative decrease from the control value, in per cent. For `S=c1[nH]c(-c2ccc3c(c2)OCO3)cn1-c1ccc(Oc2ccccc2)cc1`, the inhibition at 15 µM in assay [1] came out at 44%. For the same compound, the inhibition stood at 54% in assay [2] and 41% in assay [3].

Turning to `C/C(=N\NC(=N)SC1CC(=O)N(c2ccc(Cl)cc2)C1=O)c1cccs1` (stereo not drawn), in assay [1], the inhibition at 15 µM was determined as 19%. The inhibition in assay [2] stood at 40%; in assay [3] it was 25%.

Consider `Oc1ccc(-c2csc(Nc3ccccn3)n2)c(O)c1`, for which the inhibition at 15 µM in assay [1] turned out to be 54%.

In the case of `Cc1cccnc1Nc1nc(-c2ccc(O)cc2O)cs1`, in assay [1], the inhibition at 15 µM stood at 74%.

As a reminder, the IC50 is the point on the concentration scale where inhibition reaches its midpoint. Read a low IC50 as inhibition by little substance. As to `Cc1ccnc(Nc2nc(-c3ccc(O)cc3O)cs2)c1`, the inhibition at 15 µM in assay [1] worked out at 83%. 100 nM corresponded to half-maximal inhibition in assay [4] (IC50).

Take `COc1ccc(-c2nc(-c3ccc(O)cc3O)cs2)c(OC)c1`: the inhibition at 15 µM in assay [1] was 91%. In assay [4], this compound came in with a half-inhibitory concentration (IC50) of 2000 nM.

Take `O=C(O)c1cccc(Nc2nc(-c3ccc(O)cc3O)cs2)c1`: the inhibition at 15 µM in assay [1] is -6%.

Regarding `Cc1ccc(-c2csc(Nc3cc(C)ccn3)n2)cc1`, the inhibition at 15 µM in assay [1] turned out to be 75%.

Consider `C/C(=N\NC(=S)Nc1cccc(C)c1)c1cccc(N)c1`, for which the inhibition at 15 µM in assay [1] came out at 38%. The inhibition was found to be 52% in assay [2] and 44% in assay [3].

Consider `CCCCCOc1ccc(NC2=C(N3CCCC3)C(=O)c3ccccc3C2=O)cc1`, for which, in assay [1], the inhibition at 15 µM turned out to be 48%. The values for the inhibition in assay [2] and in assay [3] were 51% and 47%, respectively.

For `Cc1ccccc1NC(=O)CSC(N)=O`, the inhibition at 15 µM in assay [1] was -15%. Further, the inhibition amounted to 66% in assay [2] and 47% in assay [3].

In the case of `Cc1ccn2c(-c3csc(Nc4ccccn4)n3)c(C)nc2c1`, the inhibition at 15 µM in assay [1] came out at 48%.

On to `COc1ccc2nc(SCC(=O)Nc3ccc4c(c3)OCCO4)[nH]c2c1`, for which, in assay [1], the inhibition at 15 µM is 34%. Also, the inhibition in assay [2] was determined as 43%; in assay [3], 40%.

Turning to `O=S(=O)(c1ccc(NC(=S)Nc2ccccc2)cc1)N1CCCCC1`, the inhibition at 15 µM in assay [1] turned out to be 56%. Moreover, the inhibition in assay [2] was 48%; in assay [3], 23%.

Turning to `CC(=O)Nc1ccc(Nc2nc(-c3c(C)nc4ccc(C)cn34)cs2)cc1`, the Activity entry in assay [5] is “Toxic”. In addition, the inhibition in assay [2] was 46%; in assay [3], 36%.
